“Also recorded” adds a separate entry of the source.
Key:
Type in all cases: cell-based, human
[1] = tested on: panel of 55 breast cancer cell lines; test: Cell growth inhibition assay (Cell Titer Glo, 72 h, 9 doses; GI50, TGI, LC50); settings: value is the negative log10 of mol/L
[2] = tested on: breast cancer cell lines with aberrant vs normal copy number; test: Association of recurrent copy number changes and response (t-test on GI50); settings: FDR p<0.2
Text: We used a t-test to assess the association between recurrent copy number changes (at 8q24 (MYC), 11q13 (CCND1), 20q13 (STK15/AURKA)) and drug sensitivity. We combined into a single group cell lines with low or no amplification and compared them to cell lines with high amplification. […] Cell lines for which the GI50 was equal to the maximum concentration tested were omitted from analysis. We omitted compounds where any group had fewer than five samples.

[3] = tested on: luminal, basal, claudin-low and ERBB2AMP breast cancer cell lines; test: Associations of clinically relevant subtypes and response (non-parametric ANOVA or t-test on GI50 ranks)
In short: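 GI50 values were compared between cell-line subtype groups by non-parametric ANOVA or t-test on ranks. P-values from three test sets were combined and FDR-corrected. Significant three-group effects were followed by post-hoc comparison of each group against all others, and FDR p<0.20 counted as significant.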

CCn1cc(-c2ccnc3[nH]c(-c4cccc(CN(C)C)c4)cc23)c(-c2ccc(NC(=O)N(C)C)cc2)n1 [GSK1070916]
GI50 ([1]; 600MPE cell line, censored GI50 values): 5.10
GI50 ([1]; AU565 cell line, censored GI50 values): 5.52
GI50 ([1]; BT474 cell line, censored GI50 values): 5.19
GI50 ([1]; BT483 cell line, censored GI50 values): 5.35
GI50 ([1]; CAMA1 cell line, censored GI50 values): 5.05
GI50 ([1]; HCC38 cell line, censored GI50 values): 6.44
GI50 ([1]; HCC70 cell line, censored GI50 values): 6.59
GI50 ([1]; HCC202 cell line, censored GI50 values): 6.03
GI50 ([1]; HCC1143 cell line, censored GI50 values): 5.51
GI50 ([1]; HCC1187 cell line, censored GI50 values): 7.95
GI50 ([1]; HCC1395 cell line, censored GI50 values): 6.24
GI50 ([1]; HCC1419 cell line, censored GI50 values): 5.18
GI50 ([1]; HCC1428 cell line, censored GI50 values): 5.19
GI50 ([1]; HCC1500 cell line, censored GI50 values): 5.19
GI50 ([1]; HCC1806 cell line, censored GI50 values): 5.16
GI50 ([1]; HCC1937 cell line, censored GI50 values): 5.42
GI50 ([1]; HCC1954 cell line, censored GI50 values): 5.56
GI50 ([1]; HCC2185 cell line, censored GI50 values): 6.34
GI50 ([1]; HCC3153 cell line, censored GI50 values): 4.95
GI50 ([1]; MCF7 cell line, censored GI50 values): 5.06
GI50 ([1]; MDAMB134VI cell line, censored GI50 values): 5.57
GI50 ([1]; MDAMB157 cell line, censored GI50 values): 5.95
GI50 ([1]; MDAMB175VII cell line, censored GI50 values): 5.07
GI50 ([1]; MDAMB231 cell line, censored GI50 values): 5.78
GI50 ([1]; MDAMB361 cell line, censored GI50 values): 5.19
GI50 ([1]; MDAMB415 cell line, censored GI50 values): 5.76
GI50 ([1]; MDAMB436 cell line, censored GI50 values): 7.01
GI50 ([1]; MDAMB453 cell line, censored GI50 values): 5.51
GI50 ([1]; MDAMB468 cell line, censored GI50 values): 7.89
GI50 ([1]; SKBR3 cell line, censored GI50 values): 5.29
GI50 ([1]; SUM149PT cell line, censored GI50 values): 5.48
GI50 ([1]; SUM159PT cell line, censored GI50 values): 5.77
GI50 ([1]; SUM185PE cell line, censored GI50 values): 5.94
GI50 ([1]; SUM1315MO2 cell line, censored GI50 values): 5.89
GI50 ([1]; cell line 600MPE): 5.10
GI50 ([1]; cell line AU565): 5.52
GI50 ([1]; cell line BT474): 5.19
GI50 ([1]; cell line BT483): 5.35
GI50 ([1]; cell line CAMA1): 5.05
GI50 ([1]; cell line HCC38): 6.44
GI50 ([1]; cell line HCC70): 6.59
GI50 ([1]; cell line HCC202): 6.03
GI50 ([1]; cell line HCC1143): 5.51
GI50 ([1]; cell line HCC1187): 7.95
GI50 ([1]; cell line HCC1395): 6.24
GI50 ([1]; cell line HCC1419): 5.18
GI50 ([1]; cell line HCC1428): 5.19
GI50 ([1]; cell line HCC1500): 5.19
GI50 ([1]; cell line HCC1806): 5.16
GI50 ([1]; cell line HCC1937): 5.42
GI50 ([1]; cell line HCC1954): 5.56
GI50 ([1]; cell line HCC2185): 6.34
GI50 ([1]; cell line HCC3153): 4.95
GI50 ([1]; cell line MCF7): 5.06
GI50 ([1]; cell line MDAMB134V): 5.57
GI50 ([1]; cell line MDAMB157): 5.95
GI50 ([1]; cell line MDAMB175V): 5.07
GI50 ([1]; cell line MDAMB231): 5.78
GI50 ([1]; cell line MDAMB361): 5.19
GI50 ([1]; cell line MDAMB415): 5.76
GI50 ([1]; cell line MDAMB436): 7.01
GI50 ([1]; cell line MDAMB453): 5.51
GI50 ([1]; cell line MDAMB468): 7.89
GI50 ([1]; cell line SKBR3): 5.29
GI50 ([1]; cell line SUM52PE): 6.84
GI50 ([1]; cell line SUM149PT): 5.48
GI50 ([1]; cell line SUM159PT): 5.77
GI50 ([1]; cell line SUM185PE): 5.94
GI50 ([1]; cell line SUM1315MO): 5.89
GI50 ([1]; cell line UACC812): 4.51
GI50 ([1]; cell line UACC893): 5.06
GI50 ([1]; cell line ZR75B): 5.75
GI50 ([1]; cell line ZR751): 4.94
GI50 ([1]; cell line ZR7530): 4.71
association of response with amplification at 11q13 (CCND1) [2]: associated with sensitivity; also recorded: associated with response
association of response with amplification at 20q13 (STK15/AURKA) [2]: associated with resistance, rather than sensitivity
subtype-specific response (sensitivity by transcriptional subtype) ([3]; GI50 across subtypes): more active against basal and claudin-low cell lines
Subtype specificity ([3]; Table 6, most sensitive subtype, FDR p<0.20): Claudin-low
